Reference: patent EP0521963B1, “CRF ANALOGS” (THE SALK INSTITUTE FOR BIOLOGICAL STUDIES, priority 1990, dated 1998)

Tested on: cultured rat pituitary cells
Assay: Stimulation of secretion of ACTH and β-endorphin by cultured rat pituitary cells (procedure of Endocrinology, 91, 562 (1972))
Type: cell-based
Conditions: compared against synthetic oCRF, read-out: Half-maximal responses
Text: This synthetic peptide is examined for its effects on the secretion of ACTH and β-endorphin in vitro and also in vivo.

CC[C@H](C)[C@H](NC(=O)[C@H](CC(=O)O)NC(=O)[C@H](CC(C)C)NC(=O)[C@H](CC(C)C)NC(=O)[C@H](CCCCN)NC(=O)[C@H](CCCNC(=N)N)NC(=O)[C@H](CC(N)=O)NC(=O)[C@H](CO)NC(=O)[C@H](Cc1c[nH]cn1)NC(=O)[C@H](C)NC(=O)[C@H](CCC(N)=O)NC(=O)[C@H](CCC(N)=O)NC(=O)[C@H](C)NC(=O)[C@H](CC(C)C)NC(=O)[C@H](CCC(N)=O)NC(=O)[C@H](CC(=O)O)NC(=O)[C@H](C)NC(=O)[C@H](CCCCN)NC(=O)[C@@H](NC(=O)[C@H](CCSC)NC(=O)[C@H](CCC(=O)O)NC(=O)[C@H](CC(C)C)NC(=O)[C@@H](NC(=O)[C@H](CCC(=O)O)NC(=O)[C@H](CCCNC(=N)N)NC(=O)[C@H](CC(C)C)NC(=O)[C@H](CC(C)C)NC(=O)[C@H](Cc1c[nH]cn1)NC(=O)[C@H](Cc1ccccc1)NC(=O)[C@@H](NC(=O)[C@H](CC(C)C)NC(=O)[C@H](CC(=O)O)NC(=O)[C@H](CC(C)C)NC(=O)[C@H](CO)NC(=O)[C@@H](NC(=O)[C@@H]1CCCN1C(=O)[C@@H]1CCCN1C(=O)[C@H](CCC(=O)O)NC(=O)[C@H](CCC(N)=O)NC(=O)[C@@H](N)CO)[C@@H](C)CC)[C@@H](C)O)C(C)C)[C@@H](C)O)C(=O)N[C@@H](C)C(N)=O [oCRF]
EC50: ~0.25 nM
